# Tests used:
# H. elongata ACCase = test: Effect of NH4-3-HP and NH4Cl on H. elongata ACCase; format: biochemical, Halomonas elongata; settings: FIG. 4; compared to E. coli ACCase
# Experimental: Concentrations of products were measured using the Nanodrop spectophotometer.
# E. coli ACCase = E. coli ACCase (Escherichia coli, UniProt P0A9Q5+P0ABD5+P0ABD8+P24182); settings: FIG. 4; for effect of salt on E. coli ACCase activity: compared to H. elongata ACCase; for decrease of the activity of the ACCase enzyme relative to control: salt levels near 0.44M
# Chain of E. coli ACCase (P0A9Q5 whole entry): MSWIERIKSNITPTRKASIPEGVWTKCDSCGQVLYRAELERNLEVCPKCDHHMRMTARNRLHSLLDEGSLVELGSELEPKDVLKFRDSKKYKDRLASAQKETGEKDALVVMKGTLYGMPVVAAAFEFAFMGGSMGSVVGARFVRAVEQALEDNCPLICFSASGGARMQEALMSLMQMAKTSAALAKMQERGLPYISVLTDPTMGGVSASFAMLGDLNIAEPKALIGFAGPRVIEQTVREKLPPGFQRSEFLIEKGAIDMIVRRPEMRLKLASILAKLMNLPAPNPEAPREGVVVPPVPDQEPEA
# Chain of E. coli ACCase (P0ABD5 whole entry): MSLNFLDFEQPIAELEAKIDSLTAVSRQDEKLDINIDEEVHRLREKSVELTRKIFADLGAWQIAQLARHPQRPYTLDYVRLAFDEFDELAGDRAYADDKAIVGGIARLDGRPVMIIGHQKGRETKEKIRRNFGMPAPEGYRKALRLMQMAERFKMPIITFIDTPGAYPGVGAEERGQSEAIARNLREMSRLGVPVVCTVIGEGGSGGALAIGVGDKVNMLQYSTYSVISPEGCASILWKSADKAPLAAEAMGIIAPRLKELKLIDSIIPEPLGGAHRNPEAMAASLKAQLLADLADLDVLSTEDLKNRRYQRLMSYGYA
# Experimental: Levels of greater than 0.66M (60 g/L) are expected to be present for commercially viable commercial production of 3-HP.
# Each gene was amplified by PCRs with Pfu Ultra II HS using the manufacturer's instructions, and the PCR products were purified using the Zymo PCR Cleanup kit. Concentrations of products were measured using the Nanodrop spectophotometer. The Gibson Assembly kit (NEB) was used to construct plasmids expressing the ACCase subunit genes as directed by the manufacturer. The effect of NH4-3-HP and NH4Cl on H. elongata ACCase was tested and compared to the E. coli ACCase.
Compound,effect of salt on H. elongata ACCase activity (H. elongata ACCase),effect of salt on E. coli ACCase activity (E. coli ACCase),decrease of the activity of the ACCase enzyme relative to control (E. coli ACCase)
N.O=C(O)CCO [NH4-3-HP],less affected,significantly inhibited,–
Cl.N [NH4Cl],less affected,significantly inhibited,approximately 80%
[Cl-].[Na+] [NaCl],–,–,approximately 80%
